# Tested on: CD31 signaling complex captured by PECAM1.2 (CD31 domain 6) beads
# Test: CBA beads assessment of CD31 ITIM-dependent inhibitory pathway in Jurkat T cells (protein association and phosphorylation)
# Assay type: cell-based, human
# Description: Lysis of the cells. Jurkat T cells in log phase (10×10^6/ml, 1 ml) were either left untouched (negative control) or incubated with Na3VO4/H2O2 (sodium ortovanadate which is a tyrosin phosphatase inhibitor, positive control for tyrosin phosphorylation). In parallel, cells were stimulated either with CD3 or with CD3+ CD31 (domain 2, WM-59 antibody) by antibody-mediated crosslinking. After 20′ incubation at 37° C. in 5% CO2, the cells were lysed on ice for 30′ with a RIPA buffer containing a cocktail of protease and phosphatase inhibitors. Lysates were ultragentrifuged and supernatants were used either straightforward or aliquoted and stored at −20° for further analysis.
# Capture of the target protein on a solid support (1 hour at room temperature). This step follows the principle of imunoprecipitation but the signaling complex is nor denatured neither reduced, and no electrophoresis and/or blotting is carried out. As a solid support, CBA® functional beads previously coupled with an antibody directed to the membrane-proximal CD31 Ig-like domain 6 (clone MBC 78.2 also called PECAM1.2) were used following the manufacturer's instructions. An aliquot of 20 μl of lysate supernatant from each condition was incubated with 5 μl PECAM1.2-CBA® for 1 hour at room temperature.
# Detection of molecules associated with CD31 and of the phosphorylation state of CD31 ITIM 686. After washing of the beads once with CBA washing buffer (100 μl/tube), the beads were been aliquoted in 4 separate tubes and incubated with fluorescent antibodies directed to: • CD3-FITC; • CD28-PE; • CD31 domain 6 (PECAM1.2 FITC) • CD31 domain 2 (WM-59 PE) • phosphoTyrosin (clone 4G10 FITC); • phosphoSerin/Threonin (labelled with FITC) • CD31 phosphotyrosin 686 (rabbit polyclonal conjugated with alexafluor 488 antirabbit secondary antibody); or • SHP2-PE.
# After 1 hour incubation at room temperature in the dark, beads were washed once with 100 μl CBA washing buffer and more than 600 beads were acquired using an LSR II and DIVA® software.
# 4. Analysis. The median fluorescence in each fluorescent channel was recorded. The DIVA® software also calculated the % CV (variability coefficient), which can be considered as an equivalent of error bar value for repeated measure and allow statistical comparison between samples.
# [1] = Jurkat T cell lysate, 20' incubation, captured on PECAM1.2-CBA beads
substance,measurement,setting,value
sodium ortovanadate [Na3VO4/H2O2],MFI CD3,"CD3 associated with bead-captured CD31, Jurkat T cells",354 MFI
same,MFI CD28,"CD28 associated with bead-captured CD31, Jurkat T cells",3932 MFI
same,% shed CD31,[1],25%
same,CD31 dom2,[1],77 ng/mL
same,CD31 dom6,[1],103 ng/mL
same,MFI SHP-2,"SHP-2 associated with bead-captured CD31, Jurkat T cells",193 MFI
same,MFI CD31 pY686,"bead-captured CD31, Jurkat T cells",10667 MFI
same,MFI pSer/pThreo,"phosphoSerin/Threonin on bead-captured CD31 complex, Jurkat T cells",324 MFI
same,MFI pY (4G10),"total phosphoTyrosin on bead-captured CD31 complex, Jurkat T cells",1205 MFI
